Experimental data: PubChem BioAssay AID618 (Sanford-Burnham Center for Chemical Genomics, 2007)
Calls of active or inactive are those of the source. How the calls were made is not given here.

Tested on: MT1-MMP promoter luciferase reporter cells, luminescence
Experiment: MT1-MMP gene expression reporter suppression – cell-based, luciferase reporter, luminescence (AID 618);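 further: actives suppress MT1-MMP promoter-driven transcription so potencies describe inhibitors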

Structure (SMILES) | EC50
COC(=O)Cc1ccc(NC(=O)c2ccc(C(C)(C)C)cc2)cc1 | 0.31 µM
Cc1cc(/C=N/n2cnnc2)c(C)n1-c1ccc(OCc2ccc(Cl)cc2Cl)cc1 | 9.47 µM
CC1CC(C)(C)Nc2ccc(OC(=O)c3ccco3)cc21 (configuration not stated) | 3.01 µM
C/C(=N/NC(=O)c1cc(C2CC2)[nH]n1)c1cccs1 | 1.77 µM
CCOc1ccc(-c2cc(CCCC(=O)Nc3cc(OC)ccc3OC)no2)cc1 | 3.5 µM
CCc1ccc2oc(-c3cccc(N)c3)nc2c1 | 3.93 µM
CCC/C(O)=C1\C(=O)CC(C)(C)CC1=Nc1ccc(OC)cc1OC | 23.6 µM
COc1ccc(C(=O)Nc2nnc(-c3ccco3)s2)cc1 | 1.73 µM
CCCCc1ccc(-c2nc(-c3ccncc3)no2)cc1 | 13.4 µM
CCN(CC)c1ccc2cc(NC(=O)CCC(=O)O)c(=O)oc2c1 | 0.67 µM
O=C1c2ccccc2C(=O)C1c1ccnc2ccccc12 | 1.02 µM
Cc1oncc1C(=O)Nc1ccc(C(F)(F)F)cc1 | 5.65 µM
CC1=CC(C)(C)Nc2ccc(OC(=O)CN3C(=O)CCC3=O)cc21 | 42 µM
COc1ccc(C(=O)/C=C/Nc2cccc(O)c2)cc1 | 1.23 µM
COc1ccc2nc(-c3ccc(N)cc3)[nH]c2c1 | > 50 µM (inactive)
Cc1ccc2nc(-c3cccc(N)c3)oc2c1 | 3.71 µM
C=CCNc1ncnc2c1cnn2-c1ccc(OC)cc1 | 8.5 µM
Cc1ccc(-c2nc3cc(NC(=O)C(C)C)ccc3o2)cc1 | 5.62 µM

Structure (SMILES) | EC50
Cc1cc(C(=O)Nc2cccc(C(=O)O)c2)oc1C | 0.82 µM
Cc1ccc(-c2nc3cc(N)ccc3o2)cc1 | 2.91 µM
CCc1nnc(NC(=O)c2ccc(OC)cc2OC)s1 | 6.08 µM
CCCc1cc(C(=O)Nc2nccs2)cs1 | 12.7 µM
CCc1ccc(-c2nnn(CCC(=O)OC)n2)cc1 | 2.02 µM
COc1ccc(-n2ncc3c(NCC(C)C)ncnc32)cc1 | 6.31 µM
Cc1ccc(-c2nc3cc(N)ccc3o2)c(C)c1 | 2.68 µM
Cc1ccc(OCc2nc(-c3ccccn3)no2)c(Br)c1 | 2.17 µM
O=C(Nc1ccc2c(c1)OCCO2)c1cncc(Br)c1 | 7.14 µM
COc1cc(SC)ccc1C(=O)Nc1ccc2c(c1)OCCO2 | 13.2 µM
Cc1nc2ccc(-c3nc4cc(N)ccc4o3)cc2[nH]1 | 3.71 µM
CCc1cc2c(=O)n(Cc3ccco3)c(SCc3c(C)noc3C)nc2s1 | > 50 µM (inactive)
Nc1ccc(-c2nc3c(Cl)cc(N)cc3[nH]2)cc1 | 10.7 µM
COc1ccc(-n2ncc3c(NC(C)C)ncnc32)cc1 | 5.36 µM
CCOc1ccc(OCc2ccc(C(=O)OCc3ccccn3)o2)cc1 | 3.05 µM
CN(C)c1ccc(N/C=C/C(=O)c2ccco2)cc1 | 4.42 µM
COc1nc(C)ccc1-c1noc(-c2ccco2)n1 | 10.9 µM
Cc1ccc(NC(=O)c2ccc3c(c2)OCCO3)cc1 | 1.71 µM

Next, values leading:

EC50 | Structure (SMILES)
10.1 µM | O=C(O)c1cccc(C(=O)Nc2cccc(NC(=O)C3CCCO3)c2)c1 (configuration not stated)
2.88 µM | Cn1c(-c2ccccc2)cnc1SCC(=O)N1CCCCC1
> 50 µM (inactive) | Cc1cccc(C(=O)N2CCN(C(=O)c3cccc(C)c3)C(C)C2)c1 (configuration not stated)
3.53 µM | O=C(Nc1nc2ccccc2[nH]1)c1ccccc1
> 50 µM (inactive) | Cc1cc(C)n(-c2nc3ccccc3nc2N2CCC(C)CC2)n1
2.64 µM | C=CCn1c(C)cc(C(=O)CSc2nc3ccccc3[nH]2)c1C
6.35 µM | O=C(c1cc(-c2cccc(O)c2)on1)N1CCCCC1
24.6 µM | O=S1(=O)Nc2c(ccc3cccnc23)-c2ccccc21
0.23 µM | O=C(/C=C\Nc1ccc2c(c1)OCO2)c1ccccn1
26.5 µM | Oc1ccc(Nc2nc(N3CCCC3)c3ccccc3n2)cc1
1.91 µM | Nc1ccc2nc(-c3ccccc3)sc2c1
1.14 µM | COc1ccc(C(=O)Nn2c(SCC(=O)NCc3ccco3)nc3ccccc3c2=O)cc1
2.72 µM | Cc1ccc(NC2=Nc3ccccc3CC2)cc1
3.63 µM | COCCn1c(C)cc(C(=O)CSc2nnc3ccccn23)c1C
10 µM | O=c1/c(=C/c2ccccn2)sc2nc3ccccc3n12
3.57 µM | Cc1cc(N2CCOCC2)n2ncc(-c3ccccc3)c2n1
26.6 µM | Cc1cc(C)c(OCC(=O)Nc2cccc(O)c2)cc1C
34.3 µM | Cc1nc(NC2=NCN(CCCN3CCOCC3)CN2)nc2c(C)cccc12
3.9 µM | CN1CCN(c2ncnc3c2cnn3-c2ccc(Cl)cc2)CC1
2.37 µM | C=CCn1c(C)cc(C(=O)CSc2ccc(NC(C)=O)cc2)c1C
13 µM | Cc1ccnc(Nc2nc3ccccc3o2)n1
0.14 µM | O=C(c1ccc(Cl)cc1)N1CCCCC(Sc2nnc(-c3ccc4c(c3)OCO4)o2)C1=O (configuration not stated)
7.21 µM | Cc1cc(C(=O)COC(=O)c2n[nH]c3ccccc23)c(C)n1C
3.38 µM | Cc1ccc(NC(=O)N2CCc3ccccc32)cc1
22 µM | COc1ccccc1-c1cc(C(F)(F)F)nc(S(=O)(=O)CCCC(=O)N2CCOCC2)n1
2.4 µM | O=C(Nc1nc2c(s1)CCCC2)C1COc2ccccc2O1 (configuration not stated)

EC50 | Structure (SMILES)
3.04 µM | COCCn1c(C)cc(C2=NNC(=Nc3ccccc3F)SC2)c1C
13.2 µM | Cc1cc(-c2csc(N)n2)c(C)n1CCc1ccccc1
1.67 µM | Cc1ccc(CNc2nc3ccccc3s2)s1
1.43 µM | c1ccc(OCCSc2nnc3sc4ccccc4n23)cc1
9.29 µM | Cc1c(C(=O)NC2=NCCS2)oc2ccccc12
0.82 µM | O=C(CSc1nnc(-c2ccccc2)o1)Nc1ccccc1F
12 µM | CN1CCN(CC(=O)N2CCn3c4c(c5cc(C6CCCCC6)ccc53)CCCC42)CC1 (configuration not stated)
6.48 µM | O=c1c2c(nc3cc(-c4ccc(F)cc4)[nH]n13)CCCC2
3.09 µM | Cc1ccsc1/C=C1\CCc2ccccc2C1=O
3.57 µM | O=C(Nc1ccc(N2CCCCC2)cc1)c1ccccc1
15.7 µM | CCOC(=O)CCS(=O)(=O)c1nc(-c2ccccc2)cc(C(F)(F)F)n1
12.1 µM | Clc1c(CSc2nc3ccccc3o2)nc2ccccn12
2.87 µM | Cc1ccc(-c2nc(-c3ccccc3)no2)cc1
4.27 µM | O=C(CSc1nnc(-c2csc3c2CCCC3)o1)Nc1ccccc1
0.19 µM | COc1ccc(C(=O)/C=C/Nc2ccccn2)cc1
1.83 µM | O=C1c2ccccc2C(=O)C1c1nccc2ccccc12
0.55 µM | O=C(Nc1nccs1)c1cc2c(s1)CCCCC2
0.11 µM | COC(=O)CCn1nnc(-c2ccc(C(C)C)cc2)n1
10.5 µM | O=C1C(N2CCOCC2)=C(n2nnc3ccccc32)C(=O)c2ccccc21
0.96 µM | COc1cccc(C(=O)Nc2nc3ccccc3[nH]2)c1
< 0.098 µM | N#Cc1c(NC(=O)CSc2ncn[nH]2)sc2c1CCCCC2
0.8 µM | c1ccc(-c2nc3cc4ccccc4cc3[nH]2)nc1
3.06 µM | O=C1c2ccccc2S(=O)(=O)N1Cc1nc2ccccc2s1
0.6 µM | Cc1ccc(-c2nnc(SCC(=O)Nc3ccccc3F)o2)cc1
21.9 µM | Nc1cccc2nc3ccccc3cc12
